Source: patent publication EP4410284A1, “COMPOUND AND METHOD FOR THE TREATMENT OF ZELLWEGER SPECTRUM DISORDER” (Apteeus, priority 2023, dated 2024)
Where a name gives a salt, the structure may show the parent alone. Read-outs that look alike come from different tables or passages of the source.

Tests used:
[1] = system: GM16513 cells; assay type: cell-based; conditions: 3 days, PI positive cells (dead cells)
[2] = system: PEX405 cells; assay type: cell-based; conditions: 3 days, PI positive cells (dead cells)
[3] = system: GM11335; test: Catalase import immunofluorescence (% importing cells); assay type: cell-based, human; conditions: GM11335 (PEX26); for Importing cells (%): at the lower dose leading to the maximum effect (see E20)
Experimental: (§1) Primary fibroblasts were seeded at 500-700 cells per well in 384-well plates and grown at 37°C overnight. Cells were treated with test compounds or 0.1% DMSO for 3 days. After 3 days and a wash with PBS, cells were fixed with 4% paraformaldehyde (Electron Microscopy Sciences) in PBS for 20 minutes. After 3 washes with PBS, the cells were permeabilized and blocked with 0.3% Triton X-100, 1% BSA in PBS for 30 minutes at room temperature followed by 3 washes with 1% BSA in PBS. The cells were incubated with a rabbit Catalase polyclonal antibody (#12980 Cell signaling) overnight at 4°C. Following 3 washes with PBS containing 0.1% Tween-20, the cells were incubated for 1 h at room temperature with a conjugated goat anti-rabbit secondary antibody Alexa Fluor 647 (Ab150083-Abcam). The cells were then washed 3 times with PBS and Hoechst 33342 (H3570-ThermoFisher Scientific) + HCS Cellmask Blue (H32720 - ThermoFisher Scientific) staining was performed at 0.1 µg/ml and 0.4 µg/mL respectively for 30 minutes at room temperature. The cells were finally washed 3 times with PBS and fluorescent images were acquired using the INCell Analyzer 6000 imaging platform (GE Healthcare Life Sciences).
(§2) Images analysis was done using Columbus analysis software (PerkinElmer). DAPI channel was used to find nuclei (Hoechst 33342) and cytoplasm (HCS CellMask Blue) and border objects were removed. Cy5 channel (AlexaFluor 647) was used to find spots corresponding to peroxisomes which correctly import catalase. Cells were classified as importing or non-importing cells using a linear classifier method after training with images of wells containing Healthy cells and PEX1 deficient cells. The number of importing or non-importing cells was calculated. Finally, results were expressed as % of importing cells.
(§3) Among the HDAC inhibitors of example 2, 4 were tested on other cells which are PEX1, PEX6 or PEX26 deficient.

[4] = system: PEX506; test: as above; assay type: cell-based, human; conditions: PEX506 (PEX6); for Importing cells (%): at the lower dose leading to the maximum effect (see E16)
Experimental: as §1, §2, §3

[5] = system: GM 17398; test: as above; assay type: cell-based, human; conditions: GM 17398 (PEX26 deficient); for Importing cells (%): at the lower dose leading to the maximum effect (see E24)
Experimental: as §1, §2, §3

[6] = system: GM 16865; test: as above; assay type: cell-based, human; conditions: GM 16865 (PEX26); for Importing cells (%): at the lower dose leading to the maximum effect (see E22)
Experimental: as §1, §2, §3

[7] = system: PEX304; test: as above; assay type: cell-based, human; conditions: PEX304 (PEX1); for Importing cells (%): at the lower dose leading to the maximum effect (see E14)
Experimental: as §1, §2, §3

[8] = system: PEX607; test: as above; assay type: cell-based, human; conditions: PEX607 (PEX6); for Importing cells (%): at the lower dose leading to the maximum effect (see E18)
Experimental: as §1, §2, §3

[9] = system: PEX405 cells; test: Catalase import immunofluorescence, high-content screening (% importing cells); assay type: cell-based, human; conditions: for Concentration (lower dose leading to the maximum effect) / Importing cells (%): PEX405 (PEX1); for Importing cells (%): at the lower dose leading to the maximum effect (see E12); for % Importing cells: PEX405 cells, 3 days
[10] = system: GM16513 cells; test: Beta-oxidation of d4-C24:0 (LC-MS/MS); assay type: cell-based, human
Experimental: Degradation (to d4-C16:0) and elongation (to d4-C26:0 and d4-C28:0) of d4-VLCFA (very long chain fatty acid) in the cells was measured using d4-C24:0 as substrate (D-6145-CDN isotopes). D4-C24:0 was solubilized in culture medium using α-cyclodetrin, with a molar ratio of d4-C24:0:α-cyclodextrin 1:50. Cyclodextrins, which are cyclic oligosaccharides, are commonly used to solubilize fatty acids by complexation, for supplementation of cell culture media, and serve as vehicle to deliver fatty acids to the cells. Cyclodextrins have a polar surface and a hydrophobic cylindrical cavity that can bind and solubilize a wide variety of hydrophobic molecules, such as fatty acids, while remaining soluble in water. The assay was performed in T75 culture flasks for 3 or 10 days. The medium was replaced by fresh medium every 2-3 days and supplemented with d4-C24:0 for the last 3 days. After 3 or 10 days, cells were harvested and lysated in water (100-200 µL) by freeze/thaw cycle and sonication for 5 min. Total proteins were quantified using BCA assay and 100 µg of total proteins were used for each sample.
After cell lysis, the samples were dried using a rotating evaporator (Genevac EZ-2, SP Scientific), set at 40°C for 2h under vacuum. After evaporation, a hydrolysis mix consisting of 90% acetonitrile and 10% NaOH 1N in water was added to the samples. The samples were incubated for 1h at room temperature under stirring (300 rpm). After hydrolysis, the samples were evaporated using a Genevac device, under vacuum, at 40°C for 2h.
Derivation of free fatty acids was done using a 2.5 mg/mL Na2CO3 solution in DMF and a 2.5 mg/mL TMAE (trimethylammoniumethyl) reagent solution in DMF. The solutions were mixed in a 1:1 ratio, and 200 µL of the mix was added to dry samples to be derived. For the derivation, the samples were incubated for 3h at 50°C. DMF was then evaporated using a Genevac™ device, under vacuum, at 60°C for 4h.
Before injection, the samples were solubilized in a 90/10 acetonitrile/isopropanol mixture with 1% HCl. After solubilization, the samples were stirred and centrifuged at 4000 rpm for 20 min at 10°C.
For the separation of the derived fatty acids by liquid chromatography, a Waters Acquity ultra-performance liquid chromatography (UPLC) system (Acquity I-Class, Waters) was used. […]
After separation by liquid chromatography, the analytes were subjected to MS analysis using a Waters Xevo TQSmicro system (Waters). […] The molecules were analyzed using MRM (multiple reaction monitoring) mode, with the main daughter ion for each derived fatty acid corresponding to the loss of a trimethylammonium moiety (m/z 59). Derived FAs with a chain length from 16 to 28, with no or one unsaturation, were analyzed. […] The acquired data were analyzed by the Waters MassLynx software.

[11] = 0.5 µM for 3 or 10 days, compared to non-treated cells

| % PI+ cells ([1]; 1.3 µM) [%] | % PI+ cells ([1]; 10 µM) [%] | % PI+ cells ([2]; 1.3 µM) [%] | % PI+ cells ([2]; 10 µM) [%] | SMILES | Concentration (lower dose leading to the maximum effect) [3] [µM] | Importing cells (%) [3] [%] | Concentration (lower dose leading to the maximum effect) [4] [µM] | Importing cells (%) [4] [%] | Concentration (lower dose leading to the maximum effect) [5] [µM] | Importing cells (%) [5] [%] | Concentration (lower dose leading to the maximum effect) [6] [µM] | Importing cells (%) [6] [%] | Concentration (lower dose leading to the maximum effect) [7] [µM] | Importing cells (%) [7] [%] | Concentration (lower dose leading to the maximum effect) [8] [µM] | Importing cells (%) [8] [%] | Concentration (lower dose leading to the maximum effect) [9] [µM] | Importing cells (%) [9] [%] | % Importing cells ([9]; 1.3 µM) [%] | % Importing cells ([9]; 10 µM) [%] | also measured |
| --- | --- | --- | --- | --- | --- | --- | --- | --- | --- | --- | --- | --- | --- | --- | --- | --- | --- | --- | --- | --- | --- |
| 6 | 29 | 3 | 41 | CCN(CC)Cc1ccc2cc(COC(=O)Nc3ccc(C(=O)NO)cc3)ccc2c1 [Givinostat (hydrochloride monohydrate), Givinostat] | 0.087 | 20 | 0.087 | 69 | 2.5 | 0 | 0.25 | 20 | 0.85 | 5 | 0.25 | 42 | 0.25 | 13 | 12 | 6 | d4-C16,C18,C20 and C22 levels ([10]; 3 days of treatment, dose response manner): increase |
| 4 | 21 | 1 | 42 | O=C(/C=C/c1cccc(S(=O)(=O)Nc2ccccc2)c1)NO [Belinostat] | 0.85 | 30 | 0.25 | 64 | 2.5 | 0 | 0.85 | 35 | 2.5 | 11 | 0.85 | 43 | 2.5 | 41 | 52 | 27 | relative d4-VLCFA levels (C26, C28) [10, 11]: decrease; shortest d4-FA (C16, C18) levels [10, 11]: increase |
